From the supplement of paper PMC5762512

Columns and labels:
Assay in all cases: IC50 cell viability (Alamar Blue, 96 h)
[1] = system: WI-38
Method: (§1)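 Cells in log-phase growth were seeded in 96-well plates and treated with drug for 96 h at 37°C using 8-point serial dilutions from 0.0025 to 10 µM. Viability was read by Alamar Blue fluorescence after 6 h and normalised to positive and vehicle (DMSO) controls. IC50 values were fitted in ActivityBase; the value given is the mean of two independent experiments.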

[2] = system: PER-403
Method: as §1

[3] = system: HS-27
Method: as §1

[4] = system: PER-624
Method: as §1

[5] = system: PER-535
Method: as §1

[6] = system: PER-704
Method: as §1

[7] = system: RPMI2650
Method: as §1

[8] = system: TC797
Method: as §1

[9] = system: 11060
Method: as §1

[10] = system: 14169
Method: as §1

[11] = system: 10326
Method: as §1

[12] = system: PER-536
Method: as §1

[13] = system: HCC2429
Method: as §1

[14] = system: PER-891
Method: as §1

[15] = system: TY82
Method: as §1

[16] = system: A549
Method: as §1

[17] = system: 8645
Method: as §1

[18] = system: CAKI-1
Method: as §1

[19] = system: PER-712
Method: as §1

[20] = system: P896-CL
Method: as §1

Row | Compound | IC50 cell viability [1] | IC50 cell viability [2] | IC50 cell viability [3] | IC50 cell viability [4] | IC50 cell viability [5] | IC50 cell viability [6] | IC50 cell viability [7] | IC50 cell viability [8] | IC50 cell viability [9] | IC50 cell viability [10] | IC50 cell viability [11] | IC50 cell viability [12] | IC50 cell viability [13] | IC50 cell viability [14] | IC50 cell viability [15] | IC50 cell viability [16] | IC50 cell viability [17] | IC50 cell viability [18] | IC50 cell viability [19] | IC50 cell viability [20]
1 | C#Cc1cccc(Nc2ncnc3cc(OCCOC)c(OCCOC)cc23)c1 [Erlotinib] | 3120 nM | 8770 nM | 4470 nM | 3260 nM | > 10000 nM | > 10000 nM | > 10000 nM | > 10000 nM | 8680 nM | > 10000 nM | > 10000 nM | > 10000 nM | > 10000 nM | 7100 nM | > 10000 nM | 2740 nM | 1160 nM | > 10000 nM | > 10000 nM | 2580 nM
2 | CN1CC[C@H](c2c(O)cc(O)c3c(=O)cc(-c4ccccc4Cl)oc23)[C@H](O)C1 [Flavopiridol] | 84.6 nM | 46.6 nM | 108 nM | 42.8 nM | 131 nM | 70.8 nM | 140 nM | 84.4 nM | 27.2 nM | 24.8 nM | 25.4 nM | 273 nM | 40.3 nM | 69.5 nM | 64.7 nM | 61 nM | 17.7 nM | 122 nM | 82.5 nM | 24.8 nM
3 | CCCOc1ccn2c(C(C)=O)cc(-c3ccccc3S(C)(=O)=O)c2c1 [GSK-2801] | > 10000 nM | > 10000 nM | > 10000 nM | > 10000 nM | > 10000 nM | > 10000 nM | > 10000 nM | > 10000 nM | > 10000 nM | > 10000 nM | > 10000 nM | > 10000 nM | > 10000 nM | > 10000 nM | > 10000 nM | > 10000 nM | > 10000 nM | > 10000 nM | > 10000 nM | > 10000 nM
4 | Nc1ccn([C@@H]2O[C@H](CO)[C@@H](O)C2(F)F)c(=O)n1 [Gemcitabine] | 341 nM | 4.92 nM | 137 nM | 6.22 nM | 5.26 nM | 36.2 nM | 3330 nM | 16.6 nM | 9.77 nM | 6.73 nM | 14.7 nM | 5.38 nM | 7.62 nM | 568 nM | 77.5 nM | 9.64 nM | 12.4 nM | 135 nM | 49.2 nM | 29.6 nM
5 | COc1cc2c(cc1-c1c(C)noc1C)ncc1[nH]c(=O)n([C@H](C)c3ccccn3)c12 [I-BET 151] | 1760 nM | 129 nM | 4370 nM | 3240 nM | 1140 nM | 950 nM | 6810 nM | > 10000 nM | 937 nM | 178 nM | 43.5 nM | 4210 nM | 159 nM | 9290 nM | 584 nM | 738 nM | 529 nM | 7150 nM | 1940 nM | 3150 nM
6 | CN(Cc1cnc2nc(N)nc(N)c2n1)c1ccc(C(=O)N[C@@H](CCC(=O)O)C(=O)O)cc1 [Methotrexate] | > 10000 nM | 30.9 nM | > 10000 nM | 25.7 nM | > 10000 nM | 106 nM | > 10000 nM | 267 nM | 869 nM | 65.1 nM | > 10000 nM | > 10000 nM | 93.3 nM | > 10000 nM | 136 nM | 53.9 nM | 99 nM | > 10000 nM | 132 nM | > 10000 nM
7 | O=C1c2c(O)ccc(O)c2C(=O)c2c(NCCNCCO)ccc(NCCNCCO)c21 [Mitoxantrone] | 108 nM | 5.31 nM | 41.7 nM | 12.8 nM | 10.7 nM | 142 nM | 1280 nM | 141 nM | 7.36 nM | < 2.5 nM | < 2.5 nM | 144 nM | 10 nM | 266 nM | 314 nM | < 2.5 nM | < 2.5 nM | 1120 nM | 570 nM | 10.9 nM
8 | CC[C@@]1([C@@H]2O[C@@H]([C@H]3O[C@@](O)(CO)[C@H](C)C[C@@H]3C)C[C@@H]2C)CC[C@H]([C@]2(C)CC[C@]3(C[C@H](O)[C@@H](C)[C@@H]([C@@H](C)[C@@H](OC)[C@H](C)C(=O)O)O3)O2)O1 [Monensin] | 55 nM | 5580 nM | 235 nM | 1420 nM | > 10000 nM | 9240 nM | > 10000 nM | 4080 nM | 3040 nM | 3510 nM | 817 nM | > 10000 nM | 4880 nM | 5760 nM | 5070 nM | 234 nM | 4650 nM | > 10000 nM | 7480 nM | 6830 nM
